The record followed here is patent US12486269B2 (Aconcagua Bio, Inc., priority 2024, dated 2025).

Assay [1] has as its target T1, COS-7/AMY3 (human calcitonin receptor (CTR) and RAMP3) (Homo sapiens, UniProt O60896+P30988).
T1 construct: expressed in transfected cells; host or cells: COS-7
Put plainly: Amylin Receptor cAMP Assay II. Type of assay: cell-based. To be noted: values marked **: Amylin Receptor cAMP Assay II; COS-7/AMY3 cells, cAMP dynamic 2 kit, 30 min; read-out: Amylin Receptor cAMP Stimulation Activity: EC50. The gist of the method:
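COS-7 cells stably co-expressing human CTR and RAMP3 (AMY3), 2000 cells/well in HBSS with 20 mM HEPES, 0.5 mM IBMX, 0.1% casein, stimulated with compound for 30 min at 37 °C. cAMP measured by HTRF (665/615 nm), activity normalized between vehicle and maximal control.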

The target of assay [2] is T2, human calcitonin receptor (CTR) (Homo sapiens, UniProt P30988).
T2 construct: expressed in transfected cells; host or cells: COS-7 (COS7-human CTR Clone #2)
T2 sequence (P30988 25-474): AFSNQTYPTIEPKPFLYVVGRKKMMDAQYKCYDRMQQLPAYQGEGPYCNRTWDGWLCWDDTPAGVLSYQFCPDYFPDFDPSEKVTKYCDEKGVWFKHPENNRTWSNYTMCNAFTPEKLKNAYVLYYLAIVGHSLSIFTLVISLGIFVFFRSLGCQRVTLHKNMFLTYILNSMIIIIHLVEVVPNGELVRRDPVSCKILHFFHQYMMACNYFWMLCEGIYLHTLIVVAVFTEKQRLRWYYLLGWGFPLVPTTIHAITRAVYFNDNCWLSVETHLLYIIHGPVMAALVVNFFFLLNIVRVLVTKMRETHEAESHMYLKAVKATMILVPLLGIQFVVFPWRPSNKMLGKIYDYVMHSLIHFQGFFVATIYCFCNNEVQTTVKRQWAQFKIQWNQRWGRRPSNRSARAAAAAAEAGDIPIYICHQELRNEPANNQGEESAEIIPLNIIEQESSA
Description: Calcitonin Receptor (CTR) cAMP Assay. Type of assay: cell-based. To be noted: COS7-human CTR Clone #2 stable cell line, cAMP dynamic 2 kit, 30 min; read-out: Calcitonin Receptor cAMP Stimulation Activity: EC50. A digest of the protocol: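 COS-7 cells stably expressing human CTR (2000 cells/well) were incubated 30 min at 37 °C with 4-fold serially diluted compound in HBSS/20 mM HEPES/0.5 mM IBMX/0.1% casein. cAMP was detected by HTRF (665/615 nm) after 1 h at RT. % activity was normalised to vehicle and positive controls.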

T1 sequence (O60896 24-148, one chain of several): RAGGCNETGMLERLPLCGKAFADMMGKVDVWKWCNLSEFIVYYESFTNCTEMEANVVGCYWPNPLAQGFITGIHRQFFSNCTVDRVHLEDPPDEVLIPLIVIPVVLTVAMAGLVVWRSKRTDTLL

Broadly, the EC50 is the concentration at which the effect is half-maximal. In the case of `COc1c(F)cc(F)c2c1CC[C@H]2Nc1nccc2cc(-c3c4c(nc(CCc5ccc(F)cc5)c3-c3n[nH]c(=O)o3)C35CC(CN3C4=O)C5)sc12` [Compound 288, (R)-5-(4-(7-((5,7-difluoro-4-methoxy-2,3-dihydro-1H-inden-1-yl)amino)thieno[2,3-c]pyridin-2-yl)-2-(4-fluorophenethyl)-5-oxo-8,9-dihydro-5H,7H-8,9a-methanopyrido[2,3-a]pyrrolizin-3-yl)-1,3,4-oxadiazol-2(3H)-one], the EC50 is 1.59 nM in assay [1] and 0.0436 nM in assay [2].

For the compound `COc1cccc2c1CC[C@H]2Nc1nccc2cc(-c3c4c(nc(C[C@@H]5CCc6cc(F)ccc65)c3-c3n[nH]c(=O)o3)[C@@H]3CCCN3C4=O)sc12` [Compound 250, 5-((S)-2-(((S)-5-fluoro-2,3-dihydro-1H-inden-1-yl)methyl)-4-(7-(((R)-4-methoxy-2,3-dihydro-1H-inden-1-yl)amino)thieno[2,3-c]pyridin-2-yl)-5-oxo-7,8,9,9a-tetrahydro-5H-pyrido[2,3-a]pyrrolizin-3-yl)-1,3,4-oxadiazol-2(3H)-one], the results for the EC50 in assay [1] and in assay [2] were 102 nM and 4.5 nM, respectively.

As for `O=C(N[C@@H]1CCc2cc(F)c(F)cc21)c1ccc(-c2c3c(nc(CCc4ccc(F)cc4)c2-c2noc(=O)[nH]2)[C@@H]2CCCN2C3=O)s1` [Compound 120], the values for the EC50 in assay [1] and in assay [2] were 23.6 nM and 1.24 nM, respectively.

For `O=C1c2c(nc(CCc3ccc(F)cc3)c(-c3n[nH]c(=O)o3)c2-c2ccc3c(Cc4ccc(F)cn4)noc3c2)[C@@H]2CCCN12` [Compound 222, (S)-5-(2-(4-fluorophenethyl)-4-(3-((5-fluoropyridin-2-yl)methyl)benzo[d]isoxazol-6-yl)-5-oxo-7,8,9,9a-tetrahydro-5H-pyrido[2,3-a]pyrrolizin-3-yl)-1,3,4-oxadiazol-2(3H)-one], the EC50 in assay [1] came out at 511 nM; in assay [2], 12.8 nM.

As for `COc1c(F)ccc2c1CC(F)(F)[C@H]2Nc1nc(C)cc2cc(-c3c4c(nc(CCc5ccc(F)cc5)c3-c3n[nH]c(=O)o3)[C@@H]3CCCN3C4=O)sc12` [Compound 303, 5-((S)-2-(4-fluorophenethyl)-4-(5-methyl-7-(((S)-2,2,5-trifluoro-4-methoxy-2,3-dihydro-1H-inden-1-yl)amino)thieno[2,3-c]pyridin-2-yl)-5-oxo-7,8,9,9a-tetrahydro-5H-pyrido[2,3-a]pyrrolizin-3-yl)-1,3,4-oxadiazol-2(3H)-one], the EC50 in assay [1] was 0.695 nM; in assay [2], 0.0337 nM.

Turning to `COc1cccc2c1CC[C@H]2Nc1nccc2cc(-c3c4c(nc(CC5CCc6cc(F)ccc65)c3-c3noc(=O)[nH]3)[C@@H]3CCCN3C4=O)sc12` (stereo partly shown) [Compound 128], the EC50 in assay [1] stood at 21.9 nM; in assay [2], 1.13 nM.

Regarding `O=C1c2c(nc(CCc3ccc(F)cc3)c(-c3n[nH]c(=O)o3)c2-c2cnc3c(ccn3Cc3ncc(Cl)cc3F)c2)[C@@H]2CCCN12` [Compound 211, (S)-5-(4-(1-((5-chloro-3-fluoropyridin-2-yl)methyl)-1H-pyrrolo[2,3-b]pyridin-5-yl)-2-(4-fluorophenethyl)-5-oxo-7,8,9,9a-tetrahydro-5H-pyrido[2,3-a]pyrrolizin-3-yl)-1,3,4-oxadiazol-2(3H)-one], the EC50 in assay [1] amounted to 434 nM; in assay [2], 3.85 nM.

On to `O=C1c2c(nc(CCc3ccc(F)cc3)c(-c3n[nH]c(=O)o3)c2-c2cc3ccnc(N[C@@H]4CCc5cc(Cl)ccc54)c3s2)C23CC(CN12)C3` [Compound 273, (R)-5-(4-(7-((5-chloro-2,3-dihydro-1H-inden-1-yl)amino)thieno[2,3-c]pyridin-2-yl)-2-(4-fluorophenethyl)-5-oxo-8,9-dihydro-5H,7H-8,9a-methanopyrido[2,3-a]pyrrolizin-3-yl)-1,3,4-oxadiazol-2(3H)-one], for which the EC50 came to 1.79 nM in assay [1] and 0.165 nM in assay [2].

For the compound `O=C1c2c(nc(CCC3CCOCC3)c(-c3cc(=O)[nH]o3)c2-c2ccc3c(ccn3Cc3ccc(F)c(F)c3)c2)[C@@H]2CCCN12` [Compound 201, (S)-5-(4-(1-(3,4-difluorobenzyl)-1H-indol-5-yl)-5-oxo-2-(2-(tetrahydro-2H-pyran-4-yl)ethyl)-7,8,9,9a-tetrahydro-5H-pyrido[2,3-a]pyrrolizin-3-yl)isoxazol-3(2H)-one], the EC50 in assay [1] was 1370 nM; in assay [2], 19.3 nM.

As to `N#Cc1ccc(Cn2ccc3cc(-c4c5c(nc(CCc6ccc(F)cc6)c4-c4n[nH]c(=O)o4)[C@@H]4CCCN4C5=O)cnc32)nc1` [Compound 223, (S)-6-((5-(2-(4-fluorophenethyl)-5-oxo-3-(5-oxo-4,5-dihydro-1,3,4-oxadiazol-2-yl)-7,8,9,9a-tetrahydro-5H-pyrido[2,3-a]pyrrolizin-4-yl)-1H-pyrrolo[2,3-b]pyridin-1-yl)methyl)nicotinonitrile], the results for the EC50 in assay [1] and in assay [2] were 758 nM and 27.6 nM, respectively.

For the compound `COc1cc(Cl)cc2c1CC[C@H]2Nc1nccc2cc(-c3c4c(nc(CCc5ccc(F)cc5)c3-c3n[nH]c(=O)o3)[C@@H]3CCCN3C4=O)sc12` [Compound 239, 5-((S)-4-(7-(((R)-6-chloro-4-methoxy-2,3-dihydro-1H-inden-1-yl)amino)thieno[2,3-c]pyridin-2-yl)-2-(4-fluorophenethyl)-5-oxo-7,8,9,9a-tetrahydro-5H-pyrido[2,3-a]pyrrolizin-3-yl)-1,3,4-oxadiazol-2(3H)-one], the EC50 in assay [1] amounted to 23.4 nM; in assay [2] it was 0.975 nM.

Turning to `O=C1c2c(nc(CCc3ccc(F)cc3)c(-c3n[nH]c(=O)o3)c2-c2cc3ccnc(N[C@@H]4CCc5cc(F)c(F)cc54)c3s2)C23CC(CN12)C3` [Compound 190, (R)-5-(4-(7-((5,6-difluoro-2,3-dihydro-1H-inden-1-yl)amino)thieno[2,3-c]pyridin-2-yl)-2-(4-fluorophenethyl)-5-oxo-8,9-dihydro-5H,7H-8,9a-methanopyrido[2,3-a]pyrrolizin-3-yl)-1,3,4-oxadiazol-2(3H)-one], the results for the EC50 in assay [1] and in assay [2] were 0.184 nM and 0.00786 nM, respectively.

`COc1cccc2c1CC[C@H]2Nc1nccc2cc(-c3c(-c4n[nH]c(=O)o4)c(CCc4ccc(F)cc4)nc4c3S(=O)(=O)CC4C(C)C)sc12` (stereo partly drawn) [Compound 156, 5-(5-(4-fluorophenethyl)-3-isopropyl-7-(7-(((R)-4-methoxy-2,3-dihydro-1H-inden-1-yl)amino)thieno[2,3-c]pyridin-2-yl)-1,1-dioxido-2,3-dihydrothieno[3,2-b]pyridin-6-yl)-1,3,4-oxadiazol-2(3H)-one]: the EC50 stood at 55.4 nM in assay [1] and 2.48 nM in assay [2].

Turning to `O=C1c2c(nc(CCC3CCOCC3)c(-c3cc(=O)[nH]o3)c2-c2cc3ccnc(N[C@@H]4CCc5ncccc54)c3s2)[C@@H]2CCCN12` [Compound 197, 5-((S)-4-(7-(((R)-6,7-dihydro-5H-cyclopenta[b]pyridin-5-yl)amino)thieno[2,3-c]pyridin-2-yl)-5-oxo-2-(2-(tetrahydro-2H-pyran-4-yl)ethyl)-7,8,9,9a-tetrahydro-5H-pyrido[2,3-a]pyrrolizin-3-yl)isoxazol-3(2H)-one], the concentration for a half-maximal effect (EC50) in assay [1] was found to be 1790 nM; in assay [2], 58.9 nM.

For `Cc1cc2cc(-c3c4c(nc(CCc5ccc(F)cc5)c3-c3n[nH]c(=O)o3)[C@@H]3COCCN3C4=O)sc2c(N[C@@H]2CCc3cc(F)c(F)cc32)n1` [Compound 254, (R)-4-(7-(((R)-5,6-difluoro-2,3-dihydro-1H-inden-1-yl)amino)-5-methylthieno[2,3-c]pyridin-2-yl)-2-(4-fluorophenethyl)-3-(5-oxo-4,5-dihydro-1,3,4-oxadiazol-2-yl)-7,8,10,10a-tetrahydro-5H-pyrido[2′,3′:3,4]pyrrolo[2,1-c][1,4]oxazin-5-one], the EC50 in assay [1] turned out to be 0.707 nM; in assay [2] it was 0.0659 nM.

On to `O=C1c2c(nc(CCc3ccc(F)cc3)c(-c3n[nH]c(=O)o3)c2-c2cc3ccnc(N[C@@H]4COc5ccccc54)c3s2)[C@@H]2CCCN12` [Compound 169, 5-((S)-4-(7-(((S)-2,3-dihydrobenzofuran-3-yl)amino)thieno[2,3-c]pyridin-2-yl)-2-(4-fluorophenethyl)-5-oxo-7,8,9,9a-tetrahydro-5H-pyrido[2,3-a]pyrrolizin-3-yl)-1,3,4-oxadiazol-2(3H)-one], for which the EC50 in assay [1] is 254 nM; in assay [2], 10.2 nM.

Turning to `O=C1c2c(nc(CCc3ccc(F)cc3)c(-c3n[nH]c(=O)o3)c2-c2cc3ccnc(N[C@@H]4CCOc5c(F)cc(F)cc54)c3s2)C23CC(CN12)C3` [Compound 293, (R)-5-(4-(7-((6,8-difluorochroman-4-yl)amino)thieno[2,3-c]pyridin-2-yl)-2-(4-fluorophenethyl)-5-oxo-8,9-dihydro-5H,7H-8,9a-methanopyrido[2,3-a]pyrrolizin-3-yl)-1,3,4-oxadiazol-2(3H)-one], the EC50 in assay [1] came out at 2.68 nM; in assay [2], 0.0485 nM.
